The results in this text go back to ChEMBL document CHEMBL5441142, “Probing the Merck KGaA Open Global health library for novel starting points for anti-schistosomal drug discovery” (2024).

Active and inactive are the calls of the source.

Assay [1] relates to Schistosoma mansoni. The assay can be described thus: Ex vivo activity screen on S. mansoni adult worms at 20 uM. Parasite motility after compound treatment was assessed at 72 h using the WHO-TDR scoring metric. In kind it is functional, organism-based. On the set-up: test concentration 20 uM, temperature 37 degree C. The note with it: Puerto Rican.
Assay [2] deals with Schistosoma mansoni. Briefly: In vitro activity screen on S. mansoni schistosomula at 10 uM. Compound-induced effects were assessed by quantifying larva motility and phenotype using Roboworm. In kind it is functional, organism-based. On the set-up: test concentration 10 uM, temperature 37 degree C, time incubation 72 h. The settings on record: Puerto Rican.

As to `Clc1cccc(OCc2ncc3nccnc3n2)c1Cl`, in the assay on Schistosoma mansoni [1], the Ex-vivo screening entry was “inactive”. Also, the In vitro activity entry with Schistosoma mansoni [2] was “Active”.

Turning to `CNS(=O)(=O)c1ccccc1Nc1nc(Nc2cc(OC)c(OC)cc2C)ncc1Br`, in the assay on Schistosoma mansoni [1], the Ex-vivo screening entry was “inactive”. Further, the In vitro activity entry with Schistosoma mansoni [2] is “Active”.

As to `CNS(=O)(=O)c1ccccc1Nc1nc(Nc2ccc(N3CCOCC3)cc2OC)ncc1Br`, in the assay with Schistosoma mansoni [1], the Ex-vivo screening result was “inactive”. In addition, the In vitro activity result with Schistosoma mansoni [2] was “Active”.

Take `COCc1cc(-c2nc(-c3ccc(CNCC(=O)O)c(F)c3)no2)ccc1-c1ccccc1F`: in the assay with Schistosoma mansoni [1], the Ex-vivo screening result was “inactive”. In the assay with Schistosoma mansoni [2], the In vitro activity entry is “Active”.

Consider `COc1ccc(OC)c(CCNC(=O)c2ccc3nc(-c4cc(OCCCO)ccc4OC)cn3c2)c1`, for which, in the assay with Schistosoma mansoni [1], the Ex-vivo screening result was “inactive”. Moreover, in the assay on Schistosoma mansoni [2], the In vitro activity result was “Active”.

For the molecule `O=C(C1CCCCC1)N1CC(=O)N2CCc3ccccc3[C@@H]2C1`, the Ex-vivo screening result in the assay on Schistosoma mansoni [1] was “inactive”. The In vitro activity entry in the assay with Schistosoma mansoni [2] was “Active”.

As to `CCOc1cc(CCNC(=O)C[C@H]2S[C@@H](c3ccc(C#Cc4ccccc4)cc3)N(c3cccc(C(N)=O)c3)C2=O)ccc1OC`, the Ex-vivo screening result in the assay on Schistosoma mansoni [1] is “inactive”. Moreover, in the assay with Schistosoma mansoni [2], the In vitro activity entry was “Active”.

With `COCCCOc1ccc(OC)c(-c2cn3cc(C(=O)NCCc4c(OC)cc(OC)cc4OC)ccc3n2)c1`, in the assay on Schistosoma mansoni [1], the Ex-vivo screening entry is “inactive”. The In vitro activity result with Schistosoma mansoni [2] is “Active”.

Regarding `COc1cc(OC)c(CCNC(=O)c2cn3cc(-c4cc(OC)ccc4OC)nc3s2)c(OC)c1`, the Ex-vivo screening result with Schistosoma mansoni [1] was “inactive”. Moreover, the In vitro activity entry in the assay on Schistosoma mansoni [2] is “Active”.

For the molecule `Cc1cn(-c2ccc(Nc3ncn(Cc4ccc(Cl)cc4)n3)cc2C#N)cn1`, the Ex-vivo screening result with Schistosoma mansoni [1] is “inactive”. In addition, the In vitro activity entry with Schistosoma mansoni [2] was “Active”.

For `COc1ccc(CNc2nc3c(ccc4[nH]c(=O)c(C#N)cc43)s2)cc1`, in the assay with Schistosoma mansoni [1], the Ex-vivo screening entry was “Active”. Besides, the EC50 in the assay on Schistosoma mansoni [2] was 4.35 µM (active).

As for `COc1cc(Nc2cn(Cc3ccc(Oc4ccccc4)cc3)nn2)ccc1-n1cnc(C)c1`, the Ex-vivo screening entry with Schistosoma mansoni [1] is “inactive”. In addition, the In vitro activity result in the assay with Schistosoma mansoni [2] is “Active”.

Take `COc1ccc(OCCCO)cc1-c1cn2cc(-c3nnc(NCCCCc4ccccc4)o3)ccc2n1`: the Ex-vivo screening entry with Schistosoma mansoni [1] is “inactive”. For the same molecule, the In vitro activity entry with Schistosoma mansoni [2] was “Active”.

Consider `COc1ccc(OCCCO)cc1-c1cn2cc(C(=O)NCCc3c(OC)cccc3OC)sc2n1`, for which the Ex-vivo screening result in the assay with Schistosoma mansoni [1] is “inactive”. For the same molecule, the In vitro activity entry in the assay with Schistosoma mansoni [2] is “Active”.

With `COc1cccc(CNc2nnc(-c3c[nH]c4ncccc34)o2)c1`, the Ex-vivo screening entry in the assay with Schistosoma mansoni [1] is “inactive”. In the assay on Schistosoma mansoni [2], the In vitro activity entry is “Active”.

`COc1cc(OC)c(CCNC(=O)c2cn3cc(-c4cc(OCCO)ccc4OC)nc3s2)c(OC)c1`: the Ex-vivo screening entry in the assay with Schistosoma mansoni [1] is “inactive”. The In vitro activity entry in the assay with Schistosoma mansoni [2] is “Active”.
